Blank lines part the entries; values can stand above or below the compound they belong to.
Legend:
[1] = target: T1, Corticotropin-releasing factor receptor 1 (Homo sapiens, UniProt P34998)
T1 sequence (P34998 whole entry): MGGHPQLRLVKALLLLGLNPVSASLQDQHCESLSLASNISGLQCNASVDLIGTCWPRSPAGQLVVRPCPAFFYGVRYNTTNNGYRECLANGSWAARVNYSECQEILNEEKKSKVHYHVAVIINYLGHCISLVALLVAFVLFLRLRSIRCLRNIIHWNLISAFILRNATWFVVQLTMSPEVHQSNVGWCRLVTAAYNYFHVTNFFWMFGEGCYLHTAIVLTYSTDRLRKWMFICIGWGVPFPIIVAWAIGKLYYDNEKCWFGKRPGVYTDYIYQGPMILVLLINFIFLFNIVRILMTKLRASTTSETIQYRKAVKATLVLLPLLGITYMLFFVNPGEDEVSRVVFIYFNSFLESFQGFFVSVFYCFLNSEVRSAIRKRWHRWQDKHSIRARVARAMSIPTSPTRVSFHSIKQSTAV

[2] = target: Neurotensin receptor type 1 (Homo sapiens, UniProt P30989)
Sequence of Neurotensin receptor type 1 (P30989 whole entry): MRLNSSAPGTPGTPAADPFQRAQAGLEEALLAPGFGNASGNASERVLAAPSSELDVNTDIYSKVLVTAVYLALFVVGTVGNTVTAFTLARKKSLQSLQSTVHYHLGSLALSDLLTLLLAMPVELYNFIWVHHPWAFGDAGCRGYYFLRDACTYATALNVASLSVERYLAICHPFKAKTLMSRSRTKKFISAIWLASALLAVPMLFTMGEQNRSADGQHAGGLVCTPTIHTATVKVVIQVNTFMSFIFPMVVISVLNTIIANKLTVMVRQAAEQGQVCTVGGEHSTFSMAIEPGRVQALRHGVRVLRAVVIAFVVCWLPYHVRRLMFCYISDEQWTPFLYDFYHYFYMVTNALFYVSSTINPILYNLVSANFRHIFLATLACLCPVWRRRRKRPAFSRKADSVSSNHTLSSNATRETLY

[3] = target: T2, Alpha-1A adrenergic receptor (Homo sapiens, UniProt P35348)
T2 sequence (P35348 whole entry): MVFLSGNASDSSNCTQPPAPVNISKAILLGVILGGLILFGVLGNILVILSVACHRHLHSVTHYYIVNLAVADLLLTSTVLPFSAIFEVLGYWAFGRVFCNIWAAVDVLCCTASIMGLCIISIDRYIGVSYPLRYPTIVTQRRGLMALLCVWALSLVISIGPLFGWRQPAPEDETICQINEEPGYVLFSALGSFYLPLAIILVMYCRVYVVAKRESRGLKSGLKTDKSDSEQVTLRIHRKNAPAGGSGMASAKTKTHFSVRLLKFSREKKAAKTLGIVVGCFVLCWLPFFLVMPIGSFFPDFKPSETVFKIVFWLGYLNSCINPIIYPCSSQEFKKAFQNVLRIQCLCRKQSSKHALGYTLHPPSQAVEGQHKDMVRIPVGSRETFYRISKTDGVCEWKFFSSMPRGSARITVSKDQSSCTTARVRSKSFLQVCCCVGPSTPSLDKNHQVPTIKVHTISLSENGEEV

Glucagon receptor = Glucagon receptor (Homo sapiens, UniProt P47871)
Sequence of Glucagon receptor (P47871 whole entry): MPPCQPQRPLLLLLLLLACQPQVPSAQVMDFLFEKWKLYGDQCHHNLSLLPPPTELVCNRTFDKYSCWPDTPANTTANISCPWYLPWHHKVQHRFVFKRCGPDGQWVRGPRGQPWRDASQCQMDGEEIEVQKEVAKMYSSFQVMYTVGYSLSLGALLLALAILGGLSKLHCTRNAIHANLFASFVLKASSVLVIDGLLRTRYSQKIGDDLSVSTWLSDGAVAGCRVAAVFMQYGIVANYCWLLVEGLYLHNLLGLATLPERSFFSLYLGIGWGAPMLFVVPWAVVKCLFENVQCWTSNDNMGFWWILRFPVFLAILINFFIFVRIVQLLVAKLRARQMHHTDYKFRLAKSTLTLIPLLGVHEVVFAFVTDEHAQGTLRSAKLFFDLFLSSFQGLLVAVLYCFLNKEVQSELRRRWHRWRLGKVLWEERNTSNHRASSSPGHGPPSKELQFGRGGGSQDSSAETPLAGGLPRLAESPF

D(4) dopamine receptor = target: T3, D(4) dopamine receptor (Homo sapiens, UniProt P21917)
T3 sequence (P21917 whole entry): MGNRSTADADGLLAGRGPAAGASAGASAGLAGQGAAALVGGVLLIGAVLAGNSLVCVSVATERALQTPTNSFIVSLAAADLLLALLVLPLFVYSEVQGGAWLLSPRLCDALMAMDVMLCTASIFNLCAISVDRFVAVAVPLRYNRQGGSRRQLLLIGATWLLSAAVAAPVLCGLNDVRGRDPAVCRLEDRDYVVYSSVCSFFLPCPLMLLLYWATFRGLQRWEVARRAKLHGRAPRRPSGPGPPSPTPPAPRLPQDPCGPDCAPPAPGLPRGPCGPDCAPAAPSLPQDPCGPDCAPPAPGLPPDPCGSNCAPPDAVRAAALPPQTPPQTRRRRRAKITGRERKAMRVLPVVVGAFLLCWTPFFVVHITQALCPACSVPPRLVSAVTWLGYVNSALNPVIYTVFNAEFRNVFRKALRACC

[4] = target: T4, Neuropeptide Y receptor type 2 (Homo sapiens, UniProt P49146)
T4 sequence (P49146 whole entry): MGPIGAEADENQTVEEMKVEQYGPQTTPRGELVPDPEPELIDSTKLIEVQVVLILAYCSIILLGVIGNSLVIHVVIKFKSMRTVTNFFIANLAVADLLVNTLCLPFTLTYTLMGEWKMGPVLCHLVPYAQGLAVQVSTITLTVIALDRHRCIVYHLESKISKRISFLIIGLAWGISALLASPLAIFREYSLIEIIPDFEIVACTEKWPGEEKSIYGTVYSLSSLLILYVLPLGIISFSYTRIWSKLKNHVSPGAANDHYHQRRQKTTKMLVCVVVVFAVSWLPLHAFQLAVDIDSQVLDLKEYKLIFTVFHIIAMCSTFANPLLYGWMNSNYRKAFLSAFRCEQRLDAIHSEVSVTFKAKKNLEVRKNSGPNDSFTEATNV

D(1A) dopamine receptor [5] = target: T5, D(1A) dopamine receptor (Homo sapiens, UniProt P21728)
T5 sequence (P21728 whole entry): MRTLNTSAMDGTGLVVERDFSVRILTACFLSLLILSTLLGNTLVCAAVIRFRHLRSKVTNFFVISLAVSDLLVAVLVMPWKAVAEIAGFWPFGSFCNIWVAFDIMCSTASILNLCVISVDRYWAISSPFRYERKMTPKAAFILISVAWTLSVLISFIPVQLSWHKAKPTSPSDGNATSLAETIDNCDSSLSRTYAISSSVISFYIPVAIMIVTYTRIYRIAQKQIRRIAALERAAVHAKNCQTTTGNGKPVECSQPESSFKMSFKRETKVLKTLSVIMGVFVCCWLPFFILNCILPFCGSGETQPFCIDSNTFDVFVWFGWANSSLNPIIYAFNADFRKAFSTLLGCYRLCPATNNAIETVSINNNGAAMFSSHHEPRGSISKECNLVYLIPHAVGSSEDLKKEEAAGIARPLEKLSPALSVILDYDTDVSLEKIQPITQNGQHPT

[6] = target: Sodium-dependent noradrenaline transporter (Homo sapiens, UniProt P23975)
Sequence of Sodium-dependent noradrenaline transporter (P23975 whole entry): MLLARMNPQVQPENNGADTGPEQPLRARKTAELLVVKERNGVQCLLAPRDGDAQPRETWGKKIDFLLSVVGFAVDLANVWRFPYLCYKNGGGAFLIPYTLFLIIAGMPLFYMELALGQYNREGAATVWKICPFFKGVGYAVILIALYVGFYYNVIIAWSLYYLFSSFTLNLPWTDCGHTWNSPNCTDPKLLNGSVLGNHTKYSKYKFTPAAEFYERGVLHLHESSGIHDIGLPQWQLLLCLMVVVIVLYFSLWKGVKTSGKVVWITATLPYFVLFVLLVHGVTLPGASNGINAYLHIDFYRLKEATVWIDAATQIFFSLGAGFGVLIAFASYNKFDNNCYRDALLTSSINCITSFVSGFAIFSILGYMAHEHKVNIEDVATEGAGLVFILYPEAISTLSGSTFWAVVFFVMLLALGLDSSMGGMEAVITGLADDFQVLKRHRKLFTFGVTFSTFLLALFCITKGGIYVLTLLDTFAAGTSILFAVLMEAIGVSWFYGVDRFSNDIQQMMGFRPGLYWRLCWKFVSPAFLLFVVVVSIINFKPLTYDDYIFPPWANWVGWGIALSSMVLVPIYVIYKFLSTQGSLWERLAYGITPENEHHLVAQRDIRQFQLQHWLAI

[7] = target: T6, Muscarinic acetylcholine receptor M2 (Homo sapiens, UniProt P08172)
T6 sequence (P08172 whole entry): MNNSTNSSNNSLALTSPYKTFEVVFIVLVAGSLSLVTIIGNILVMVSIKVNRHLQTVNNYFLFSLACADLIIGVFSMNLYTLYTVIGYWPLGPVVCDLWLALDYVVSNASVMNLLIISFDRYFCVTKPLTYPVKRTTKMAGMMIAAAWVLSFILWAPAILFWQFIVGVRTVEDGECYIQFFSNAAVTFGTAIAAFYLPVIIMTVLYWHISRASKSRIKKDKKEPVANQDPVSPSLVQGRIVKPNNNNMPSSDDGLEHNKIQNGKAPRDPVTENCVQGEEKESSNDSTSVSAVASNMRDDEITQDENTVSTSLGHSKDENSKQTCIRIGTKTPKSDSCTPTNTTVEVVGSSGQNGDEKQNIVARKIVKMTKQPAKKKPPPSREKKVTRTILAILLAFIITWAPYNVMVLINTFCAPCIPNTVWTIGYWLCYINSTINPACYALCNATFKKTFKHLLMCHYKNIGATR

Histamine H2 receptor = Histamine H2 receptor (Homo sapiens, UniProt P25021)
Sequence of Histamine H2 receptor (P25021 whole entry): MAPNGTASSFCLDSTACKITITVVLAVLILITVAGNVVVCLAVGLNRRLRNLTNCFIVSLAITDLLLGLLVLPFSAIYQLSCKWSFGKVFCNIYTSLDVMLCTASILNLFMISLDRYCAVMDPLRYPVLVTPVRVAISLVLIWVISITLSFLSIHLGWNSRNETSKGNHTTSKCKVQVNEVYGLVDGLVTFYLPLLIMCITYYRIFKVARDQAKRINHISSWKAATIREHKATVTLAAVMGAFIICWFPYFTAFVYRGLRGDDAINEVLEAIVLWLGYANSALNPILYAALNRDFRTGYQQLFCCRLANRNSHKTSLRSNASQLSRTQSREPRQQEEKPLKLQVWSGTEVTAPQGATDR

[8] = target: 5-hydroxytryptamine receptor 2B (Homo sapiens, UniProt P41595)
Sequence of 5-hydroxytryptamine receptor 2B (P41595 whole entry): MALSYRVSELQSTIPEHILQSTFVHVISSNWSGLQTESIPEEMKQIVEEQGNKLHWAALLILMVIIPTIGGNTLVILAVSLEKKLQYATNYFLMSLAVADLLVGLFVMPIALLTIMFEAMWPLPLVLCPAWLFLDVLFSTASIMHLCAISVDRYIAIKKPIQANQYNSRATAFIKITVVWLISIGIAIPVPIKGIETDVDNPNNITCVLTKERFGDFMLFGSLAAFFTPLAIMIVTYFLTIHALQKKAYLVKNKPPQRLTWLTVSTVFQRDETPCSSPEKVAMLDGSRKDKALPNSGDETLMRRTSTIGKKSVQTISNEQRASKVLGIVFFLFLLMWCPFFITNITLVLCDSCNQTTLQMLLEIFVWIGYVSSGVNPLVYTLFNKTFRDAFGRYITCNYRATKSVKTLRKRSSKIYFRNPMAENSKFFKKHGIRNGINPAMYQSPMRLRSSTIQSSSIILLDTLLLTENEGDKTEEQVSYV

[9] = target: T2, Alpha-1A adrenergic receptor; remark: listed apart in the source
D(1A) dopamine receptor [10] = target: T5, D(1A) dopamine receptor; remark: listed apart in the source
[11] = target: Beta-2 adrenergic receptor (Homo sapiens, UniProt P07550); format: functional, cell-based
Sequence of Beta-2 adrenergic receptor (P07550 whole entry): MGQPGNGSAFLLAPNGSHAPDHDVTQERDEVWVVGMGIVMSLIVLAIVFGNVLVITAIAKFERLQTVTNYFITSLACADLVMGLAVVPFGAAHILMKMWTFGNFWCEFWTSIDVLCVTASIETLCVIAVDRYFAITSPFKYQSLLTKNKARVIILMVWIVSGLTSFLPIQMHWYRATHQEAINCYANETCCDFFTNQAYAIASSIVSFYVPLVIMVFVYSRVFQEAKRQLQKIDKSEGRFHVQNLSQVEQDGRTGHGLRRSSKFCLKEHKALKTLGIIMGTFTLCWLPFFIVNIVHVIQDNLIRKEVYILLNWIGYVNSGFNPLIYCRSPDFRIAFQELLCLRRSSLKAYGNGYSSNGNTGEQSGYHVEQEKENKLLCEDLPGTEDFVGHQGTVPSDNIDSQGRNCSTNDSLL
Further: assay procedure not described here.

AC50 [6]: > 30 µM
SMILES: O=C(O)CSCC(=O)NC1CCSC1=O (stereo unspecified) [ERDOSTEINE]

AC50 [6]: > 30 µM
SMILES: COc1cccc(N(C)C(=S)Oc2ccc3c(c2)CCCC3)n1 [LIRANAFTATE]

AC50 [6]: 10.9 µM
SMILES: C#C[C@]1(O)CC[C@H]2[C@@H]3CCc4cc(OC)ccc4[C@H]3CC[C@@]21C [MESTRANOL]

AC50 [6]: > 30 µM
SMILES: O=C(O)c1cc(O)c2c3nc4ccccc4oc-3cc(=O)c2n1 [PIRENOXINE]

AC50 [6]: > 30 µM
SMILES: NS(=O)(=O)c1cc(C(=O)O)cc(N2CCCC2)c1Oc1ccccc1 [PIRETANIDE]

AC50 [6]: 26 µM
SMILES: CC(C)=CCOc1ccc(/C=C/C(=O)c2ccc(OCC=C(C)C)cc2OCC(=O)O)cc1 [SOFALCONE]

AC50 [6]: > 30 µM
SMILES: CN(C)c1cc(NC(=O)CNC(C)(C)C)c(O)c2c1C[C@H]1C[C@H]3[C@H](N(C)C)C(O)=C(C(N)=O)C(=O)[C@@]3(O)C(O)=C1C2=O [TIGECYCLINE]

The remaining lines, values behind:

SMILES: CCn1cc(C(=O)O)c(=O)c2cc(F)c(N3CCNCC3)nc21 [ENOXACIN]
AC50 [1]: > 30 µM | AC50 [2]: > 30 µM | AC50 [3]: > 10 µM | AC50 (Glucagon receptor): > 30 µM | AC50 (D(4) dopamine receptor): > 10 µM | AC50 [4]: > 30 µM | AC50 (D(1A) dopamine receptor [5]): > 10 µM | AC50 [6]: > 10 µM | AC50 [7]: > 10 µM | AC50 (Histamine H2 receptor): > 10 µM | AC50 [8]: > 10 µM

SMILES: CCC(=O)O[C@@H]1CC(=O)O[C@H](C)C/C=C/C=C/[C@H](OC(C)=O)[C@H](C)C[C@H](CC=O)[C@H](O[C@@H]2O[C@H](C)[C@@H](O[C@H]3C[C@@](C)(OC(C)=O)[C@@H](OC(=O)CC)[C@H](C)O3)[C@H](N(C)C)[C@H]2O)[C@H]1OC [MIOCAMYCIN]
AC50 [9]: > 30 µM | AC50 (D(1A) dopamine receptor [10]): > 30 µM

SMILES: CNC(=O)Oc1ccc2c(c1)[C@]1(C)CCN(C)[C@@H]1N2C [PHYSOSTIGMINE]
AC50 [11]: > 30 µM | AC50 [6]: > 30 µM

SMILES: C1CNCCN1 [PIPERAZINE]
AC50 [9]: > 30 µM | AC50 (D(1A) dopamine receptor [10]): > 30 µM

SMILES: CNCCCC1c2ccccc2C=Cc2ccccc21 [PROTRIPTYLINE]
AC50 [7]: 0.653 µM

SMILES: COCCCOc1ccnc(C[S+]([O-])c2nc3ccccc3[nH]2)c1C (stereo unspecified) [RABEPRAZOLE]
AC50 [1]: > 30 µM | AC50 [2]: > 30 µM | AC50 [3]: 4.98 µM | AC50 (Glucagon receptor): > 30 µM | AC50 (D(4) dopamine receptor): > 10 µM | AC50 [4]: > 30 µM | AC50 (D(1A) dopamine receptor [5]): > 10 µM | AC50 [6]: > 10 µM | AC50 [7]: > 10 µM | AC50 (Histamine H2 receptor): > 10 µM | AC50 [8]: > 10 µM

SMILES: O=C(CCCN1CCC2(CC1)C(=O)NCN2c1ccccc1)c1ccc(F)cc1 [SPIPERONE]
AC50 [11]: > 30 µM | AC50 [8]: 0.66 µM

SMILES: CCSc1ccc2c(c1)N(CCCN1CCN(C)CC1)c1ccccc1S2 [THIETHYLPERAZINE]
AC50 [6]: 9.6 µM

SMILES: OCCN1CCN(CC/C=C2/c3ccccc3Sc3ccc(Cl)cc32)CC1 [ZUCLOPENTHIXOL]
AC50 [6]: 17.4 µM | AC50 [8]: 0.0144 µM

— ChEMBL document CHEMBL5291721, “A preclinical secondary pharmacology resource illuminates target-adverse drug reaction associations of marketed drugs” (Nat Commun, 2023)
